# Laboratory results as given in patent publication US8476051B2, “Thermostable alcohol dehydrogenase derived from Thermococcus guaymasensis” (priority 2008, dated 2013).
# “Also recorded” adds a separate entry of the source. Where two headings read alike, the source gives them in different places. Marks after values point to notes of the source that are not given here.
# What was measured:
# T. guaymasensis ADH [1] = biological target: T1, T. guaymasensis ADH (Thermococcus guaymasensis, UniProt F8S123); test: Substrate specificity, alcohol oxidation (standard enzyme assay); type: biochemical; settings: for Relative activity (alcohol oxidation): alcohols 50 mM, 100% = 2-butanol, 0.4 mM NADP^+, pH 10.5, 80° C.
# Description: (§1) The purified enzyme (0.25 μg) initiated the enzyme assay. […] The protein concentrations of all samples were determined using the Bradford method and bovine serum albumin served as the standard protein (Bradford 1976).
# (§2) The effect of pH on the enzyme activities was determined over a range of 5.5-11.4. The buffers (100 mM) used were phosphate (pH 5.5-8.0), EPPS (8.0-9.0), glycylglycine (9.0-9.7), and CAPS (9.7-11.4). The effect of the temperature on the enzyme activity was examined at temperatures from 30 to 95° C. Enzyme thermostability was determined by incubating the enzyme in sealed serum bottles at 80° C. and 95° C., respectively. Residual activity was assayed at various time intervals under the standard assay conditions. Substrate specificity was determined using primary and secondary alcohols (50 mM), diols and polyols (50 mM), or aldehydes and ketones (6 mM) under standard assay conditions.
# T. guaymasensis ADH [2] = biological target: T1, T. guaymasensis ADH; test: Stereoselective conversion between acetoin and 2,3-butanediol (chiral GC); type: biochemical
# Description: All the reactions were carried out at 30° C. for 24 hours unless specified. After that, the reaction mixture (1 ml) was extracted with 1 ml ethyl acetate or dichloride methane with shaking on a Gyrotory water bath shaker model G76 (New Brunswick Scientific Co., INC., NJ, USA) at 350 rpm for 30 min (room temperature). The stereoselectivity of the purified enzyme was determined using the Shimadzu GC-14A gas chromatography equipped with a CP-Chirasil-Dex CB column (0.25 mm ID×25 m length, Varian Inc., Palo Alto, Calif., USA). The following GC operating conditions included the FID detector (250° C.) at a sensitivity range of 10 and helium as the carrier gas at a linear velocity of 40 cm s^−1. […] The reaction mixture after extraction (0.5 μl) was directly applied onto the injector (200° C.) for each assay. The peak areas were quantitated using specific external standards.
# T. guaymasensis ADH [3] = biological target: T1, T. guaymasensis ADH; test: Substrate specificity, aldehyde/ketone reduction (standard enzyme assay); type: biochemical; settings: aldehydes or ketones 6 mM; 100% = 2-butanone; 0.2 mM NADPH, pH 7.5, 80° C.
# Description: as §1, §2
# T. guaymasensis ADH [4] = test: Effect of metal ions on enzyme activity (2-butanone reduction); type: biochemical, Thermococcus guaymasensis; settings: up to 100 μM in the assay mixture
# Description: as §2
# Metal ions were added in the enzyme assay mixture at a final concentration of 100 μM.
# C[C@@H](O)[C@@H](C)O = test: purified protein, by the assay type; settings: other: co-substrate NADP^+ (0.4 mM); 80.0 °C
# C[C@H](O)[C@@H](C)O = test: purified protein, by the assay type; settings: other: co-substrate NADP^+ (0.4 mM); 80.0 °C
# [5] = substrate: CC(=O)C(C)O; test: purified protein, by the assay type; type: biochemical, Thermococcus guaymasensis; settings: other: co-substrate NADPH (0.2 mM); 80.0 °C
# Description: Apparent values of Km and Vmax were calculated using the curve fittings of SigmaPlot (Systat Software Inc., San Jose, Calif., USA).
# [6] = substrate: CCC(C)=O; test: purified protein, by the assay type; settings: other: co-substrate NADPH (0.2 mM); 80.0 °C
# [7] = substrate: CC(=O)C(C)=O; test: purified protein, by the assay type; settings: other: co-substrate NADPH (0.2 mM); 80.0 °C
# [8] = ADH specific activity (spectrophotometric enzyme assay); type: biochemical
# Description: as §1
# The reaction was initiated by adding enzymes.
# [9] = Oxygen sensitivity (residual activity after exposure to air); type: physicochemical; settings: exposed to air for a week
# Description: The effect of oxygen on enzyme activity was investigated by exposing the enzyme samples in the air at room temperature and determining the residual activity after oxygen exposure. The exposure was performed in the presence or absence of DDT and SDT. The residual activities of each sample at different time intervals were tested parallelly under the standard assay conditions.
# [10] = oxidation, 50 mM substrate, 500 mM acetone, 1 mM NADP^+, 30° C., 24 hours
molecule,measurement,setting,value
1-Propanol,Relative activity (alcohol oxidation),T. guaymasensis ADH [1],15.1 ± 0.3%
CC(=O)C(C)O (racemic) [Acetoin],"ee of (2R,3R)-2,3-butanediol and meso-2,3-butanediol over (2S,3S)-(+)-2,3-butanediol","T. guaymasensis ADH [2]; reduction, 50 mM substrate, 500 mM isopropanol, 1 mM NADPH, 30° C., 24 hours",> 99%
same,Relative activity (aldehyde/ketone reduction),T. guaymasensis ADH [3],93 ± 3.2%
same,Oxidation of the substrate by the enzyme (in words),T. guaymasensis ADH [1],could not oxidize; also recorded: cannot be oxidized
"CCC(O)CO (stereo not shown) [1,2-Butanediol]",Relative activity (alcohol oxidation),T. guaymasensis ADH [1],25.6 ± 2.3%
"CCCC(O)CO (stereo not shown) [1,2-Pentanediol]",Relative activity (alcohol oxidation),T. guaymasensis ADH [1],4.7 ± 0.3%
"CC(O)CCO (stereo not shown) [1,3-Butanediol]",Relative activity (alcohol oxidation),T. guaymasensis ADH [1],35.4 ± 1.1%
CCCCO [1-Butanol],Relative activity (alcohol oxidation),T. guaymasensis ADH [1],5.1 ± 0.2%
CCCCCO [1-Pentanol],Relative activity (alcohol oxidation),T. guaymasensis ADH [1],0.8 ± 0.2%
"CC(O)C(C)O (stereo not shown) [2,3-Butanediol]",Relative activity (alcohol oxidation),T. guaymasensis ADH [1],78.7 ± 3.4%
"CC(O)CC(C)O (stereo not shown) [2,4-Pentanediol]",Relative activity (alcohol oxidation),T. guaymasensis ADH [1],9.2 ± 0.1%
CCC(C)O (stereo not shown) [2-Butanol],Activity meant by relative activity of 100% in alcohol oxidation,T. guaymasensis ADH [1]; 50 mM substrate,^aThe relative activity of 100% in alcohol oxidation means 1144 ± 24 U mg^−1.
same,Relative activity (alcohol oxidation),T. guaymasensis ADH [1],100 ± 2.2^a %
CCC(C)=O [2-Butanone],Stereoselectivity of the reduction (in words),T. guaymasensis ADH [2]; reduction to chiral 2-butanols,no stereoselectivity
same,Relative activity (aldehyde/ketone reduction),T. guaymasensis ADH [3],100 ± 3.4^b %
CCCC(C)O (stereo not shown) [2-Pentanol],Relative activity (alcohol oxidation),T. guaymasensis ADH [1],66.3%
CCCC(C)=O [2-Pentanone],Relative activity (aldehyde/ketone reduction),T. guaymasensis ADH [3],86.2 ± 3.1%
CC(C)O [2-Propanol],Relative activity (alcohol oxidation),T. guaymasensis ADH [1],88 ± 1.1%
"C[C@@H](O)[C@@H](C)O [(2R,3R)-(−)-2,3-butanediol]",Enantiomeric excess (ee) of product (3R)-acetoin,T. guaymasensis ADH [2]; [10],94%
CC=O [Acetaldehyde],Relative activity (aldehyde/ketone reduction),T. guaymasensis ADH [3],36 ± 4.2%
CC(C)=O [Acetone],Relative activity (aldehyde/ketone reduction),T. guaymasensis ADH [3],149.4 ± 2.8%
CCCC=O [Butyraldehyde],Relative activity (aldehyde/ketone reduction),T. guaymasensis ADH [3],112.4 ± 11.9%
CC(=O)C(C)=O [Diacetyl],Relative activity (aldehyde/ketone reduction),T. guaymasensis ADH [3],134.8 ± 5.9%
CCO [Ethanol],Relative activity (alcohol oxidation),T. guaymasensis ADH [1],5.7 ± 0.3%
OCC(O)CO [Glycerol],Relative activity (alcohol oxidation),T. guaymasensis ADH [1],0.2 ± 0.1%
N[C@@H](CO)C(=O)O [L-serine],Oxidation of the substrate by the enzyme (in words),T. guaymasensis ADH [1],no activity; also recorded: did not catalyze
C[C@@H](O)[C@H](N)C(=O)O [L-threonine],Oxidation of the substrate by the enzyme (in words),T. guaymasensis ADH [1],no activity; also recorded: did not catalyze
same,Oxidation of the substrate by the enzyme (in words),T. guaymasensis ADH [1]; listed as threonine,did not catalyze
CO [Methanol],Oxidation of the substrate by the enzyme (in words),T. guaymasensis ADH [1],did not oxidize
same,Relative activity (alcohol oxidation),T. guaymasensis ADH [1],0%
[Zn+2] [Zn^2+],Effect on enzyme activity (butanol formation),T. guaymasensis ADH [4],inhibited
same,Effect on enzyme activity (butanol formation),T. guaymasensis ADH [4]; listed as zinc,blocked
"C[C@H](O)[C@@H](C)O [meso-2,3-butanediol]",Enantiomeric excess (ee) of product (3S)-acetoin,T. guaymasensis ADH [2]; [10],88%
T. guaymasensis ADH (Thermococcus guaymasensis),Km,C[C@@H](O)[C@@H](C)O,15200 µM
same,Vmax,C[C@@H](O)[C@@H](C)O,1110 µmol/min/mg
same,kcat,C[C@@H](O)[C@@H](C)O,740 s⁻¹
same,kcat/Km,C[C@@H](O)[C@@H](C)O,49000 M⁻¹ s⁻¹
same,Km,C[C@H](O)[C@@H](C)O,19300 µM
same,Vmax,C[C@H](O)[C@@H](C)O,1430 µmol/min/mg
same,kcat,C[C@H](O)[C@@H](C)O,952 s⁻¹
same,kcat/Km,C[C@H](O)[C@@H](C)O,49000 M⁻¹ s⁻¹
T. guaymasensis ADH (Thermococcus guaymasensis) (protein) SKMRGFAMVDFGKAEWIEKERPKPGPYDAIVKPIAVAPCTSDIHTVFEAAFPREMCEFPRILGHEAVGEVVEVGSHVKDFKPGDRVVVPAITPDWRTLDVQRGYHQHSGGMLAGWKFSNPLKEGGKDGVFAEYFHVNDADMNLAHLPDEIKPEVAVMATDMMTTGFHGAELADIPLGGTVAVIGIGPVGLMAVAGARLLGAGRIIAVGSRPVCVEAAKYYGATDIVNRREHPDIAGRILELTGGEGVDSVIIAGGNVDVMKTAVKIVKPGGTVANINYFGSGDYLPIPRIEWGQGMAHKTIKGGLCPGGRLRMERLLDLIKYGRVDPSRLITHKFKGFDKIPEALYLMKDKPKDLIKPVVIIEE,Km,[5],320 µM
same,Vmax,[5],213 µmol/min/mg
same,kcat,[5],142 s⁻¹
same,kcat/Km,[5],444000 M⁻¹ s⁻¹
same,Km,[6],310 µM
same,Vmax,[6],285 U mg^−1
same,kcat,[6],190 s⁻¹
same,kcat/Km,[6],"613,000 s^−1M^−1"
same,Km,[7],210 µM
same,Vmax,[7],303 µmol/min/mg
same,kcat,[7],202 s⁻¹
same,kcat/Km,[7],962000 M⁻¹ s⁻¹
"TgADH(C56S): TgADH mutant, serine for cysteine at position 56 (SEQ ID NO:10), expressed in E. coli Rosetta-2 (protein, C56S with vector coding region) MHHHHHHSSGLVPRGSGMKETAAAKFERQHMDSPDLGTDDDDKAMADIGSEFMSKMRGFAMVDFGKAEWIEKERPKPGPYDAIVKPIAVAPCTSDIHTVFEAAFPREMSEFPRILGHEAVGEVVEVGSHVKDFKPGDRVVVPAITPDWRTLDVQRGYHQHSGGMLAGWKFSNPLKEGGKDGVFAEYFHVNDADMNLAHLPDEIKPEVAVMATDMMTTGFHGAELADIPLGGTVAVIGIGPVGLMAVAGARLLGAGRIIAVGSRPVCVEAAKYYGATDIVNRREHPDIAGRILELTGGEGVDSVIIAGGNVDVMKTAVKIVKPGGTVANINYFGSGDYLPIPRIEWGQGMAHKTIKGGLCPGGRLRMERLLDLIKYGRVDPSRLITHKFKGFDKIPEALYLMKDKPKDLIKPVVIIEE",Enzyme activity compared with wild type TgADH (in words),[8],virtually no difference
same,Activity after exposure to air (in words),[9],lost activity
